According to patent US20080319083A1, “MEDICINE FOR TRANSNASAL ADMINISTRATION” (priority 2006, published 2008):
Structures can show the parent of a compound that is named as a salt. Where two headings read alike, the source gives them in different places.

Assays:
[1] = Transnasal administration experiment in closed system, plasma pharmacokinetics (Test Example 1)
Protocol: To 100 μL of plasma was added 300 μL of NH4Cl (pH 9), and the mixture was stirred for 30 seconds. Then, 500 μL of chloroform/2-isopropanol/n-heptane (60/14/26) was added, and the mixture was shaken for 2 minutes and centrifuged (4° C., 15,000 rpm, 5 min).
The chloroform layer (lower layer) obtained by centrifugation was transferred to another microtube, and the solvent was removed with flowing nitrogen. All the solvents were removed, and the extract was dissolved in 100 μL of a buffer used as a mobile phase for HPLC. Then, the solution was dispensed into a glass tube and injected to HPLC in an amount of 30 μL to measure the concentration of milnacipran hydrochloride.
The intravenous maximum plasma concentration (Cmax), maximum plasma concentration time (Tmax), area under the plasma concentration-time curve (AUC) and absorption ratio (F) were calculated. The area under the plasma concentration-time curve (AUC) was calculated from the trapezoid formula AUC represents an integrated value of the concentrations of plasma milnacipran absorbed and transferred to blood.
The obtained data was analyzed based on the nonlinear least-squares method program (algorithm: Damping Gauss-Newton method). AUC, MRT, MAT were derived from moment analysis. Meanwhile, the relative rate of the retention in the nasal cavity was evaluated by Formula (1) below.
A solution of urethane in isotonic sodium chloride solution (dosage 1.0 g/kg, 25 w/v %) was administered intraperitoneally to Wistar male rats, and the rats were anaesthetized: Each rat was fixed on a fixed base in a face-up position, and then the airway and esophagus surgeries was performed on the rat in according to the method of Hirai et. al (J. Pharm. Sci. 69:1411-1413 (1980)) to thereby expose the left and right jugular veins. The solution of milnacipran hydrochloride in isotonic sodium chloride solution was administered to the left the nasal cavity using a microsyringe, the top of which was attached to a silicone tube (dosage 20 mg/kg, concentration 100 mg/mL). Blood was corrected over time from the right jugular using a syringe previously treated with heparin. The blood samples were collected in an amount of 0.2 mL per injection, just 0 minute before transnasal administration, and 5, 10, 20, 30, 60, 90, 120, 180, 240, 300 and 360 minutes after the transnasal administration respectively. The collected blood samples were immediately centrifuged at 4° C. and 15,000 rpm (17,860 g) for 5 minutes, to thereby yield plasma samples (0.1 mL).

[2] = Transnasal administration experiment in opened system, plasma pharmacokinetics (Test Example 1); format: in vivo, Wistar male rats
Source text: AUC, MRT, MAT were derived from moment analysis. […] Each rat was fixed in a face-up position on a fixed base, and the right jugular vein was exposed to insert a catheter. After the nib of the catheter was indwelled in the atrium dextrum, the opened regions of the right jugular vein was sutured together using the medical suture thread with an attached needle (17 mm, angle ½ black nylon 5-0, Matsuda Sutures). After the sufficient recovery period, each rat was used for experiments. To the rats with the jugular vein catheterization, prepared by the above-described “1. […] Blood was collected via catheter over time using an injection syringe previously treated with heparin. […] After recovering from diethylether anesthesia, the rats was placed in gauges.

[3] = in vivo; parameters: species or system Wistar male rats; settings: male, Wistar, rat, iv, 20 mg/kg
Protocol: Each rat was fixed in a face-up position on a fixed base, and the left and right jugular veins were exposed to collect blood. The rats underwent an operation of the airway and esophagus to adjust the physiological conditions to the same conditions as those of the intranasal administration test, and the above-prepared isotonic sodium chloride solution containing milnacipran hydrochloride (dosage 20 mg/kg, concentration 20 mg/mL) was administered from the right jugular vein, followed by collection of blood using an injection syringe previously treated with heparin with time in an amount of 200 μL per injection. […] The obtained data was analyzed based on the moment analysis to calculate the area under the plasma concentration-time curve (AUC), mean residence time (MRT), and mean absorption time (MAT). The cumulative absorption profile of milnacipran hydrochloride was calculated by the deconvolution method based on kinetic parameters determined from the intravenous administration test for an input function and based on plasma levels after intraduodenal or intranasal administration for an output function.

[4] = In vivo intranasal administration test of milnacipran hydrochloride (Test Example 2); parameters: species or system Wistar male rats
Protocol: Each rat was fixed in a face-up position on a fixed base and underwent an operation of the airway and esophagus to adjust the physiological conditions to the same conditions as those of the intravenous administration test, to thereby expose the left and right jugular veins. […] An injection syringe previously treated with heparin was used to collect blood from the right jugular vein over time.
The cumulative absorption profile of milnacipran hydrochloride was determined by the deconvolution method using kinetic parameters determined from the intravenous administration test as an input function and plasma levels after transnasal administration as an output function.

[5] = In vivo intravenous administration test of milnacipran hydrochloride (Test Example 2); parameters: species or system Wistar male rats
Source text: Each rat was fixed in a face-up position on a fixed base and underwent an operation of the airway and esophagus, to thereby expose the left and right jugular veins. […]

[6] = In vivo intranasal administration test of milnacipran hydrochloride (Test Example 3); parameters: species or system Wistar male rats; settings: i.n. 20 mg/kg
Protocol: Each rat was fixed in a face-up position on a fixed base, and the left and right jugular veins were exposed to collect blood. […] The time of intranasal administration was defined as 0 minutes, and blood samples were collected using an injection syringe previously treated with heparin with time in an amount of 200 μL per injection.
The obtained data was analyzed based on the moment analysis to calculate the area under the plasma concentration-time curve (AUC), mean residence time (MRT), and mean absorption time (MAT). The cumulative absorption profile of milnacipran hydrochloride was calculated by the deconvolution method based on kinetic parameters determined from the intravenous administration test for an input function and based on plasma levels after intraduodenal or intranasal administration for an output function.

[7] = In vivo intraduodenal administration test of milnacipran hydrochloride (Test Example 3); parameters: species or system Wistar male rats; settings: rat
Protocol: Each rat was fixed in a face-up position on a fixed base, and the left and right jugular veins were exposed to collect blood. The abdominal cavity was incised to take the duodenum out, and the downstream portion of the duodenum was ligated, followed by direct administration of the above-prepared isotonic sodium chloride solution containing milnacipran hydrochloride (dosage 20 mg/kg, concentration 20 mg/mL) to the duodenum from the upstream portion. The time of duodenum administration was defined as 0 minutes, and blood samples were collected using an injection syringe previously treated with heparin with time in an amount of 200 μL per injection. […] The obtained data was analyzed based on the moment analysis to calculate the area under the plasma concentration-time curve (AUC), mean residence time (MRT), and mean absorption time (MAT). The cumulative absorption profile of milnacipran hydrochloride was calculated by the deconvolution method based on kinetic parameters determined from the intravenous administration test for an input function and based on plasma levels after intraduodenal or intranasal administration for an output function.

[8] = Evaluation of transfer of milnacipran hydrochloride to central nerve system, CSF concentration (Test Example 4); parameters: species or system Wistar male rats; settings: in vivo
Protocol: As an indicator of transfer to the central nerve system, the concentration of a drug in a cerebrospinal fluid (CSF) was measured. The same operations and administrations as Test Example 3 (in vivo mucosal absorption experiment) were performed (n=3) for intravenous administration, intraduodenal administration, and intranasal administration. Then, blood was collected with time from the jugular vein, and after a given length of time, CSF was collected. An injection needle previously cut was adhered to a silicon tube to prepare an instrument, the other end of which was connected to a syringe, and after a given length of time following drug administration, a puncture was made ventrally from the top of the back of the head of a rat to a depth of 5 to 6 mm with the top of the injection needle. Then, the syringe was drawn to collect CSF in an amount of about 200 μL in the silicon tube.
The obtained data was analyzed based on the moment analysis to calculate the area under the cerebrospinal fluid concentration-time curve (AUCCSF). The AUCCSF represents an integrated value of concentrations of milnacipran in CFS, absorbed and transferred to the brain. Transfer of a drug from the general circulation to CSF is controlled by permeation through a blood-brain barrier and is greatly affected by the concentration of the drug in blood. Therefore, in order to consider the effect of permeation through a blood-brain barrier, brain transfer was evaluated by comparing ratios of the concentrations in CSF to the protein unbound drug concentration in plasma at the time of collection of CSF. Meanwhile, the brain transfer ratio (Kpu) was calculated from an area under the CSF concentration-time curve, an area under the plasma concentration-time curve, and a plasma protein unbinding ratio (following Formula 3). A significant test was performed based on the Tukey-Kramer multiple comparison. Note that AUCplasma represents an integrated value of the plasma concentrations of milnacipran absorbed and transferred to blood.

[9] = male, Wistar, rat, in vivo, inhaled or intranasal, 20 mg/kg
[10] = male, Wistar, in vivo, inhaled or intranasal, rat plasma, transnasal 20 mg/kg, opened system
[11] = male, Wistar, rat, in vivo, iv, 20 mg/kg
[12] = male, Wistar, in vivo, inhaled or intranasal, rat plasma
[13] = male, Wistar, in vivo, 20 mg/kg
[14] = male, Wistar, rat, iv, 20 mg/kg

CCN(CC)C(=O)C1(c2ccccc2)CC1CN (racemic) [milnacipran hydrochloride, cis-(±)-2-(aminomethyl)-N,N-diethyl-1-phenyl-cyclopropanecarboxyamide]
AUC(0-inf) [1, 9]: 8.4 µg·h/mL | Cmax [1, 9]: 5.12 µg/mL | Tmax [1, 9]: 0.333 h | MRT inf ([1]; male, Wistar, rat, in vivo, inhaled or intranasal, 20 mg/kg, MRT∞, rat plasma, transnasal 20 mg/kg, closed system): 1.88 h | MRT∞ ([1]; rat plasma, transnasal 20 mg/kg, closed system, listed as Control): 1.62 h | F∞ ([1]; rat, transnasal 20 mg/kg, closed system, vs i.v. 20 mg/kg): 84.9% | AUC(0-inf) [2, 10]: 6.12 µg·h/mL | Cmax [2, 10]: 3.04 µg/mL | MRT inf [2, 10]: 1.77 h | Tmax [2, 10]: 0.333 h | Fo/Fc (relative rate of the retention in the nasal cavity) ([2]; male, Wistar, rat, in vivo): 72.8% | F∞ ([2]; rat, transnasal 20 mg/kg, opened system): 61.9% | AUC(0-inf) [3]: 9.89 µg·h/mL | MRT inf [3]: 1.34 h | AUC(0-inf) ([4]; male, Wistar, in vivo, inhaled or intranasal, rat plasma, i.n. 10 mg/kg): 4.77 µg·h/mL | AUC(0-t) ([4]; male, Wistar, in vivo, inhaled or intranasal, rat plasma, i.n. 10 mg/kg, 0 to 7 hours, read-out: AUC0-7 (converted)): 4.38 µg·h/mL | Tmax ([4]; male, Wistar, in vivo, rat plasma, i.n. 10 mg/kg): 0.333 h | Cmax ([4]; male, Wistar, in vivo, rat plasma, i.n. 10 mg/kg, 50 mg/mL (Example 5)): 5.27 µg/mL | F0-7 ([4]; rat, i.n. 10 mg/kg vs i.v. 20 mg/kg, 0 to 7 hours): 90.41% | AUC(0-inf) [5, 11]: 9.68 µg·h/mL | AUC(0-t) [5, 11]: 9.43 µg·h/mL | Vd [5, 11]: 0.123 L | clearance [5, 11]: 2.69 mL/min | B ([5]; rat plasma, i.v. 20 mg/kg): 5580.51 ng/mL | t1/2α ([5]; rat plasma, i.v. 20 mg/kg): 6.221 min | t1/2β ([5]; rat plasma, i.v. 20 mg/kg): 1.0709 h | α ([5]; rat plasma, i.v. 20 mg/kg): 0.1114 min⁻¹ | β ([5]; rat plasma, i.v. 20 mg/kg): 0.01079 min⁻¹ | A ([5]; rat plasma, i.v. 20 mg/kg, two-compartment parameter): 7085.09 ng/mL | V1 ([5]; rat, i.v. 20 mg/kg): 67.74 mL | V2 ([5]; rat, i.v. 20 mg/kg): 55.64 mL | k10 ([5]; rat, i.v. 20 mg/kg): 0.0218 min⁻¹ | k12 ([5]; rat, i.v. 20 mg/kg): 0.0453 min⁻¹ | k21 ([5]; rat, i.v. 20 mg/kg): 0.0551 min⁻¹ | AUC(0-inf) [6, 12]: 8.4 µg·h/mL | Cmax [6, 12]: 5.12 µg/mL | MRT inf [6, 12]: 1.62 h | Tmax [6, 12]: 0.333 h | F∞ ([6]; rat): 84.9% | AUC(0-inf) [7, 13]: 7 µg·h/mL | Cmax [7, 13]: 3.07 µg/mL | MRT inf [7, 13]: 1.89 h | Tmax [7, 13]: 1 h | F∞ ([7]; i.d. 20 mg/kg): 70.8% | Cmax ([8]; male, Wistar, inhaled or intranasal, rat CSF, i.n. 20 mg/kg, read-out: Cmax (maximum CSF concentration)): 4.02 µg/mL | Tmax ([8]; male, Wistar, inhaled or intranasal, rat CSF, i.n. 20 mg/kg, read-out: Tmax (time-to-maximum CSF concentration) (converted)): 0.333 h | AUC ([8]; male, Wistar, inhaled or intranasal, rat plasma, i.n. 20 mg/kg, read-out: AUCPlasma (converted)): 8.4 µg·h/mL | AUC ([8]; male, Wistar, rat, 20 mg/kg): 7 µg·h/mL | Cmax ([8]; male, Wistar, rat, 20 mg/kg): 1.01 µg/mL | Tmax ([8]; male, Wistar, rat, 20 mg/kg): 1 h | ratio of plasma concentration and CSF concentration ([8]; male, Wistar, rat, 20 mg/kg): significantly increased up to 30 minutes after administration | AUC [8, 14]: 9.89 µg·h/mL | AUCCSF [8, 14]: 13727.9 ng·min/mL | Cmax [8, 14]: 2.22 µg/mL | Tmax [8, 14]: 0.167 h | Kp ([8]; male, Wistar, rat, iv, 20 mg/kg, Kpu (brain transfer ratio)): 0.028 | CSF Cmax in intranasal administration relative to intraduodenal administration ([8]; rat, 20 mg/kg): four times larger than that in intraduodenal administration | CSF Cmax in intranasal administration relative to intravenous administration ([8]; rat, 20 mg/kg): twice larger than that in intravenous administration | ratio of plasma concentration and CSF concentration ([8]; rat, 20 mg/kg): almost constant
